15 compounds from PubChem BioAssay AID248 (DTP/NCI, 2004) can be followed below.

Inconclusive results and toxic doses are left out.

This test concerns L1210 leukemia ip in BDF1 mice, survival T/C. The experiment in a line: NCI In Vivo Anticancer Drug Screen. Data for tumor model L1210 Leukemia (intraperitoneal) in B6D2F1 (BDF1) mice. As to conditions: endpoint: mean survival time, higher = longer survival. The gist of the method: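 Tumor was transplanted into mice, which were then dosed with test compound or vehicle alone. Survival was recorded for each group, and the treated figure was expressed relative to the control figure.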

The mark [1] stands for this setting: dose: 25.0 mg/kg/injection, schedule: Q01DX009 (ip), vehicle: saline.
The mark [2] stands for this setting: dose: 50.0 mg/kg/injection, schedule: Q01DX009 (ip), vehicle: saline.
The mark [3] stands for this setting: dose: 25.0 mg/kg/injection, schedule: Q04DX002 (ip), vehicle: saline with Tween-80.
The mark [4] stands for this setting: dose: 100.0 mg/kg/injection, schedule: Q04DX002 (ip), vehicle: saline with Tween-80.
Where [5] appears, read: dose: 100.0 mg/kg/injection, schedule: Q04DX003 (ip), vehicle: Klucel (hydroxypropylcellulose) (HPC).
[6] abbreviates: dose: 200.0 mg/kg/injection, schedule: Q04DX003 (ip), vehicle: Klucel (hydroxypropylcellulose) (HPC).
[7] abbreviates: dose: 400.0 mg/kg/injection, schedule: Q04DX003 (ip), vehicle: Klucel (hydroxypropylcellulose) (HPC).
The mark [8] stands for this setting: dose: 100.0 mg/kg/injection, schedule: Q04DX003 (ip), vehicle: saline.
Where [9] appears, read: dose: 100.0 mg/kg/injection, schedule: Q01DX009 (ip), vehicle: saline with Tween-80.
Setting [10] is: dose: 100.0 mg/kg/injection, schedule: Q01DX009 (ip), vehicle: saline.
Setting [11] is: dose: 200.0 mg/kg/injection, schedule: Q01DX009 (ip), vehicle: saline.

Take `CCN(CC)Cc1cc(Nc2c(C)cnc3cc(Cl)ccc23)ccc1O`: the T/C was 94 % of control under setting [1] and 90 % of control under setting [2].

Regarding `C1=C(/c2ccccc2)CCCCCC/1`, the T/C runs as follows: (dose: 37.5 mg/kg/injection, schedule: Q01DX009 (ip), vehicle: saline) 101 % of control; (dose: 75.0 mg/kg/injection, schedule: Q01DX001 (ip), vehicle: acetone) 98 % of control; (dose: 75.0 mg/kg/injection, schedule: Q01DX009 (ip), vehicle: saline) 90 % of control; (dose: 150.0 mg/kg/injection, schedule: Q01DX001 (ip), vehicle: acetone) 93 % of control; (dose: 150.0 mg/kg/injection, schedule: Q01DX009 (ip), vehicle: saline) 103 % of control; (dose: 300.0 mg/kg/injection, schedule: Q01DX001 (ip), vehicle: acetone) 91 % of control.

As for `O=C(/C=C(\Br)c1ccccc1)c1ccccc1`, the T/C (dose: 25.0 mg/kg/injection, schedule: Q01DX005 (ip), vehicle: saline with Tween-80) was 93 % of control; the T/C (dose: 25.0 mg/kg/injection, schedule: Q01DX009 (ip), vehicle: saline with Tween-80) was 88 % of control; the T/C under setting [3] was 102 % of control; the T/C (dose: 50.0 mg/kg/injection, schedule: Q01DX005 (ip), vehicle: saline with Tween-80) was 97 % of control; the T/C (dose: 50.0 mg/kg/injection, schedule: Q01DX009 (ip), vehicle: saline with Tween-80) was 98 % of control; the T/C (dose: 50.0 mg/kg/injection, schedule: Q04DX002 (ip), vehicle: saline with Tween-80) was 109 % of control. The T/C (dose: 100.0 mg/kg/injection, schedule: Q01DX005 (ip), vehicle: saline with Tween-80) is 108 % of control and the T/C under setting [4] is 91 % of control.

For `CSc1ccc(N2C(=O)C3C(C2=O)C2(Cl)C(Cl)=C(Cl)C3(Cl)C2(Cl)Cl)cc1` (stereo not given), the T/C runs as follows: (dose: 100.0 mg/kg/injection, schedule: Q01DX009 (ip), vehicle: Klucel (hydroxypropylcellulose) (HPC)) 105 % of control; under setting [5], 101 % of control; (dose: 200.0 mg/kg/injection, schedule: Q01DX009 (ip), vehicle: Klucel (hydroxypropylcellulose) (HPC)) 100 % of control; under setting [6], 104 % of control; (dose: 400.0 mg/kg/injection, schedule: Q01DX009 (ip), vehicle: Klucel (hydroxypropylcellulose) (HPC)) 103 % of control; under setting [7], 98 % of control.

`COc1cc(N(CCCl)CCCl)c(OC)cc1C=Nc1ccc(-c2nc(Cc3ccccc3)sc2C)cc1`: the T/C was 117 % of control (dose: 4.0 mg/kg/injection, schedule: Q01DX009 (ip), vehicle: other); 123 % of control (dose: 6.0 mg/kg/injection, schedule: Q01DX009 (ip), vehicle: other); 120 % of control (dose: 9.0 mg/kg/injection, schedule: Q01DX009 (ip), vehicle: other); 105 % of control (dose: 12.5 mg/kg/injection, schedule: Q01DX001 (ip), vehicle: carboxymethylcellulose (CMC)); 105 % of control (dose: 25.0 mg/kg/injection, schedule: Q01DX001 (ip), vehicle: carboxymethylcellulose (CMC)); 110 % of control (dose: 44.0 mg/kg/injection, schedule: Q01DX001 (ip), vehicle: carboxymethylcellulose (CMC)). Besides, the T/C reads like this: (dose: 44.0 mg/kg/injection, schedule: Q01DX009 (ip), vehicle: other) 160 % of control; (dose: 66.0 mg/kg/injection, schedule: Q01DX009 (ip), vehicle: carboxymethylcellulose (CMC)) 102 % of control; (dose: 100.0 mg/kg/injection, schedule: Q01DX009 (ip), vehicle: carboxymethylcellulose (CMC)) 88 % of control; (dose: 150.0 mg/kg/injection, schedule: Q01DX001 (ip), vehicle: carboxymethylcellulose (CMC)) 153 % of control.

As for `CC1(Cl)C(=O)NC(=O)C1Cl` (stereo not given), the T/C runs as follows: (dose: 3.12 mg/kg/injection, schedule: Q01DX009 (ip), vehicle: saline) 92 % of control; (dose: 6.25 mg/kg/injection, schedule: Q01DX009 (ip), vehicle: saline) 87 % of control; under setting [1], 87 % of control; (dose: 25.0 mg/kg/injection, schedule: Q04DX003 (ip), vehicle: saline) 103 % of control; under setting [2], 92 % of control; (dose: 50.0 mg/kg/injection, schedule: Q04DX003 (ip), vehicle: saline) 97 % of control. The T/C under setting [8] is 110 % of control.

For the compound `CN(N)C=O`, the T/C was 100 % of control (dose: 75.0 mg/kg/injection, schedule: Q01DX001 (ip), vehicle: saline); 108 % of control under setting [8]; 96 % of control (dose: 150.0 mg/kg/injection, schedule: Q01DX001 (ip), vehicle: saline); 98 % of control (dose: 300.0 mg/kg/injection, schedule: Q01DX001 (ip), vehicle: saline).

As for `CCOC(=O)C(CCC(C)C)C(C)=O` (stereo not given), the T/C is 97 % of control under setting [9]; 101 % of control under setting [4]; 112 % of control (dose: 200.0 mg/kg/injection, schedule: Q01DX009 (ip), vehicle: saline with Tween-80); 97 % of control (dose: 200.0 mg/kg/injection, schedule: Q04DX002 (ip), vehicle: saline with Tween-80); 104 % of control (dose: 400.0 mg/kg/injection, schedule: Q01DX009 (ip), vehicle: saline with Tween-80); 101 % of control (dose: 400.0 mg/kg/injection, schedule: Q04DX002 (ip), vehicle: saline with Tween-80).

Take `Cc1nc2ccc(NC(=O)c3ccccc3)cc2o1`: the T/C under setting [5] is 105 % of control, the T/C under setting [6] is 105 % of control and the T/C under setting [7] was 100 % of control.

Consider `CCCS(=O)(=O)c1ccc(C)cc1`, for which the T/C was 98 % of control (dose: 100.0 mg/kg/injection, schedule: Q01DX001 (ip), vehicle: saline); 94 % of control under setting [10]; 100 % of control (dose: 100.0 mg/kg/injection, schedule: Q04DX003 (ip), vehicle: acetone); 98 % of control (dose: 200.0 mg/kg/injection, schedule: Q01DX001 (ip), vehicle: saline); 93 % of control under setting [11]; 102 % of control (dose: 200.0 mg/kg/injection, schedule: Q04DX003 (ip), vehicle: acetone). Moreover, the T/C was 107 % of control (dose: 400.0 mg/kg/injection, schedule: Q01DX001 (ip), vehicle: saline); 93 % of control (dose: 400.0 mg/kg/injection, schedule: Q01DX009 (ip), vehicle: saline); 100 % of control (dose: 400.0 mg/kg/injection, schedule: Q04DX003 (ip), vehicle: acetone).

For the compound `CC(=O)NC1C(OCc2ccccc2)OC(COC(c2ccccc2)(c2ccccc2)c2ccccc2)C(N=[N+]=[N-])C1OCc1ccccc1` (stereo not given), the T/C is 86 % of control (dose: 100.0 mg/kg/injection, schedule: Q01DX001 (ip), vehicle: saline with Tween-80); 86 % of control (dose: 200.0 mg/kg/injection, schedule: Q01DX001 (ip), vehicle: saline with Tween-80); 102 % of control (dose: 400.0 mg/kg/injection, schedule: Q01DX001 (ip), vehicle: saline with Tween-80).

For the compound `CC(C)=NNC(=O)CC(=O)NN=C(C)C`, the T/C is 89 % of control (dose: 100.0 mg/kg/injection, schedule: Q04DX003 (ip), vehicle: saline sonified); 87 % of control (dose: 200.0 mg/kg/injection, schedule: Q04DX003 (ip), vehicle: saline sonified); 94 % of control (dose: 400.0 mg/kg/injection, schedule: Q04DX003 (ip), vehicle: saline sonified).

With `O=C(O)C(CNC(=O)C(F)(F)F)Cc1ccc([N+](=O)[O-])cc1` (stereo not given), the T/C is 120 % of control under setting [9], 88 % of control under setting [10] and 103 % of control under setting [11].

Take `Nc1cnc([S][Sn]([c]2ccccc2)([c]2ccccc2)[c]2ccccc2)s1`: the T/C was 101 % of control (dose: 6.25 mg/kg/injection, schedule: Q04DX002 (ip), vehicle: saline with Tween-80); 96 % of control (dose: 12.5 mg/kg/injection, schedule: Q04DX002 (ip), vehicle: saline with Tween-80); 104 % of control under setting [3].

As to `COc1ccc(C(=O)NN2C(N)=NC(N)=NC2(C)C)cc1`, the T/C under setting [8] is 94 % of control and the T/C (dose: 200.0 mg/kg/injection, schedule: Q04DX003 (ip), vehicle: saline) is 97 % of control.
